The subject of this series is CCRIS mutagenicity, Ames/micronucleus/aberration tests. As to the kind of experiment: CCRIS mutagenicity studies.
Where [1] appears, read: Test System: AMES SALMONELLA TYPHIMURIUM, Strain/Indicator: TA98, Metabolic Activation: NONE, Method: STANDARD PLATE.
The mark [2] stands for this setting: Test System: AMES SALMONELLA TYPHIMURIUM, Strain/Indicator: TA100, Metabolic Activation: NONE, Method: STANDARD PLATE.
[3] abbreviates: Test System: AMES SALMONELLA TYPHIMURIUM, Strain/Indicator: TA100, Metabolic Activation: RAT, LIVER, S-9, AROCLOR 1254, Method: STANDARD PLATE.

Active and inactive are the calls of the source. How the calls were made is not given here.

Regarding `COP(=S)(OC)Oc1ccc(Sc2ccc(OP(=S)(OC)OC)cc2)cc1`, the mutagenic call (Test System: AMES SALMONELLA TYPHIMURIUM, Strain/Indicator: TA97, Metabolic Activation: NONE, Method: STANDARD PLATE) is “inactive; negative”; the mutagenic call (Test System: AMES SALMONELLA TYPHIMURIUM, Strain/Indicator: TA97, Metabolic Activation: S-9, Method: STANDARD PLATE) was “inactive; negative”; the mutagenic call under setting [1] is “inactive; negative”; the mutagenic call (Test System: AMES SALMONELLA TYPHIMURIUM, Strain/Indicator: TA98, Metabolic Activation: S-9, Method: STANDARD PLATE) was “inactive; negative”; the mutagenic call (Test System: AMES SALMONELLA TYPHIMURIUM, Strain/Indicator: TA98NR, Metabolic Activation: NONE, Method: STANDARD PLATE) is “active; positive”; the mutagenic call (Test System: AMES SALMONELLA TYPHIMURIUM, Strain/Indicator: TA98NR, Metabolic Activation: S-9, Method: STANDARD PLATE) was “active; positive”. Besides, the mutagenic call runs as follows: under setting [2], “inactive; negative”; (Test System: AMES SALMONELLA TYPHIMURIUM, Strain/Indicator: TA100, Metabolic Activation: S-9, Method: STANDARD PLATE) “inactive; negative”; (Test System: AMES SALMONELLA TYPHIMURIUM, Strain/Indicator: TA102, Metabolic Activation: NONE, Method: STANDARD PLATE) “inactive; negative”; (Test System: AMES SALMONELLA TYPHIMURIUM, Strain/Indicator: TA102, Metabolic Activation: S-9, Method: STANDARD PLATE) “inactive; negative”; (Test System: AMES SALMONELLA TYPHIMURIUM, Strain/Indicator: TA1535, Metabolic Activation: NONE, Method: STANDARD PLATE) “active; positive”; (Test System: AMES SALMONELLA TYPHIMURIUM, Strain/Indicator: TA1535, Metabolic Activation: S-9, Method: STANDARD PLATE) “active; positive”. In addition, the mutagenic call is “active; positive” (Test System: AMES SALMONELLA TYPHIMURIUM, Strain/Indicator: YG7104, Metabolic Activation: NONE, Method: STANDARD PLATE); “active; positive” (Test System: AMES SALMONELLA TYPHIMURIUM, Strain/Indicator: YG7104, Metabolic Activation: S-9, Method: STANDARD PLATE); “inactive; negative” (Test System: AMES SALMONELLA TYPHIMURIUM, Strain/Indicator: YG7108, Metabolic Activation: NONE, Method: STANDARD PLATE); “active; positive” (Test System: AMES SALMONELLA TYPHIMURIUM, Strain/Indicator: YG7108, Metabolic Activation: S-9, Method: STANDARD PLATE).

Regarding `C[C@](N)(Cc1ccc(O)c(O)c1)C(=O)O`, the mutagenic call is “inactive; negative” (End Point: IN VITRO CHROMOSOMAL ABERRATIONS, Test System: CHO CELLS, Metabolic Activation: NONE); “inactive; negative; testing limited by solubility of the chemical” (End Point: IN VITRO CHROMOSOMAL ABERRATIONS, Test System: CHO CELLS, Metabolic Activation: RAT, LIVER, S-9, AROCLOR 1254); “inactive; negative” (Test System: AMES SALMONELLA TYPHIMURIUM, Strain/Indicator: TA97, Metabolic Activation: HAMSTER, LIVER, S-9, AROCLOR 1254 (10 OR 30%), Method: PREINCUBATION); “inactive; negative” (Test System: AMES SALMONELLA TYPHIMURIUM, Strain/Indicator: TA97, Metabolic Activation: HAMSTER, LIVER, S-9, AROCLOR 1254, Method: PREINCUBATION); “inactive; negative” (Test System: AMES SALMONELLA TYPHIMURIUM, Strain/Indicator: TA97, Metabolic Activation: NONE, Method: PREINCUBATION); “inactive; negative” (Test System: AMES SALMONELLA TYPHIMURIUM, Strain/Indicator: TA97, Metabolic Activation: RAT, LIVER, S-9, AROCLOR 1254 (10 OR 30%), Method: PREINCUBATION). Further, the mutagenic call (Test System: AMES SALMONELLA TYPHIMURIUM, Strain/Indicator: TA97, Metabolic Activation: RAT, LIVER, S-9, AROCLOR 1254, Method: PREINCUBATION) is “inactive; negative”; the mutagenic call (Test System: AMES SALMONELLA TYPHIMURIUM, Strain/Indicator: TA98, Metabolic Activation: HAMSTER, LIVER, S-9, AROCLOR 1254 (10%), Method: PREINCUBATION) was “inactive; negative”; the mutagenic call (Test System: AMES SALMONELLA TYPHIMURIUM, Strain/Indicator: TA98, Metabolic Activation: HAMSTER, LIVER, S-9, AROCLOR 1254 (30%), Method: PREINCUBATION) is “inactive; negative”; the mutagenic call (Test System: AMES SALMONELLA TYPHIMURIUM, Strain/Indicator: TA98, Metabolic Activation: HAMSTER, LIVER, S-9, AROCLOR 1254, Method: PREINCUBATION) was “inactive; negative”; the mutagenic call (Test System: AMES SALMONELLA TYPHIMURIUM, Strain/Indicator: TA98, Metabolic Activation: NONE, Method: PREINCUBATION) was “inactive; negative”; the mutagenic call (Test System: AMES SALMONELLA TYPHIMURIUM, Strain/Indicator: TA98, Metabolic Activation: RAT, LIVER, S-9, AROCLOR 1254 (10%), Method: PREINCUBATION) was “inactive; negative”. Besides, the mutagenic call was “inactive; negative” (Test System: AMES SALMONELLA TYPHIMURIUM, Strain/Indicator: TA98, Metabolic Activation: RAT, LIVER, S-9, AROCLOR 1254 (30%), Method: PREINCUBATION); “inactive; negative” (Test System: AMES SALMONELLA TYPHIMURIUM, Strain/Indicator: TA98, Metabolic Activation: RAT, LIVER, S-9, AROCLOR 1254, Method: PREINCUBATION); “inactive; negative” (Test System: AMES SALMONELLA TYPHIMURIUM, Strain/Indicator: TA100, Metabolic Activation: HAMSTER, LIVER, S-9, AROCLOR 1254 (10%), Method: PREINCUBATION); “inactive; negative” (Test System: AMES SALMONELLA TYPHIMURIUM, Strain/Indicator: TA100, Metabolic Activation: HAMSTER, LIVER, S-9, AROCLOR 1254 (30%), Method: PREINCUBATION); “inactive; negative” (Test System: AMES SALMONELLA TYPHIMURIUM, Strain/Indicator: TA100, Metabolic Activation: HAMSTER, LIVER, S-9, AROCLOR 1254, Method: PREINCUBATION); “inactive; negative” (Test System: AMES SALMONELLA TYPHIMURIUM, Strain/Indicator: TA100, Metabolic Activation: NONE, Method: PREINCUBATION). In addition, the mutagenic call is “inactive; negative” (Test System: AMES SALMONELLA TYPHIMURIUM, Strain/Indicator: TA100, Metabolic Activation: RAT, LIVER, S-9, AROCLOR 1254 (10%), Method: PREINCUBATION); “inactive; negative” (Test System: AMES SALMONELLA TYPHIMURIUM, Strain/Indicator: TA100, Metabolic Activation: RAT, LIVER, S-9, AROCLOR 1254 (30%), Method: PREINCUBATION); “inactive; negative” (Test System: AMES SALMONELLA TYPHIMURIUM, Strain/Indicator: TA100, Metabolic Activation: RAT, LIVER, S-9, AROCLOR 1254, Method: PREINCUBATION); “inactive; negative” (Test System: AMES SALMONELLA TYPHIMURIUM, Strain/Indicator: TA1535, Metabolic Activation: HAMSTER, LIVER, S-9, AROCLOR 1254 (10%), Method: PREINCUBATION); “inactive; negative” (Test System: AMES SALMONELLA TYPHIMURIUM, Strain/Indicator: TA1535, Metabolic Activation: HAMSTER, LIVER, S-9, AROCLOR 1254 (30%), Method: PREINCUBATION); “inactive; negative” (Test System: AMES SALMONELLA TYPHIMURIUM, Strain/Indicator: TA1535, Metabolic Activation: HAMSTER, LIVER, S-9, AROCLOR 1254, Method: PREINCUBATION). For the same molecule, the mutagenic call by setting is: (Test System: AMES SALMONELLA TYPHIMURIUM, Strain/Indicator: TA1535, Metabolic Activation: NONE, Method: PREINCUBATION) “inactive; negative”; (Test System: AMES SALMONELLA TYPHIMURIUM, Strain/Indicator: TA1535, Metabolic Activation: RAT, LIVER, S-9, AROCLOR 1254 (10%), Method: PREINCUBATION) “inactive; negative”; (Test System: AMES SALMONELLA TYPHIMURIUM, Strain/Indicator: TA1535, Metabolic Activation: RAT, LIVER, S-9, AROCLOR 1254 (30%), Method: PREINCUBATION) “inactive; negative”; (Test System: AMES SALMONELLA TYPHIMURIUM, Strain/Indicator: TA1535, Metabolic Activation: RAT, LIVER, S-9, AROCLOR 1254, Method: PREINCUBATION) “inactive; negative”.

On to `O=C(/C=C/c1ccc(Br)cc1)c1ccccc1`, for which the mutagenic call is, setting by setting: under setting [1], “inactive; negative”; (Test System: AMES SALMONELLA TYPHIMURIUM, Strain/Indicator: TA98, Metabolic Activation: RAT, LIVER, S-9, AROCLOR 1254, Method: STANDARD PLATE) “inactive; negative”; under setting [2], “inactive; negative”; under setting [3], “inactive; negative”.

With `O=C1Nc2cc3ccccc3c3c4c(cc1c23)OCO4`, the mutagenic call under setting [2] is “inactive; negative”; the mutagenic call under setting [3] is “active; positive”; the mutagenic call (Test System: AMES SALMONELLA TYPHIMURIUM, Strain/Indicator: TA1537, Metabolic Activation: NONE, Method: STANDARD PLATE) is “inactive; negative”; the mutagenic call (Test System: AMES SALMONELLA TYPHIMURIUM, Strain/Indicator: TA1537, Metabolic Activation: RAT, LIVER, S-9, AROCLOR 1254, Method: STANDARD PLATE) was “active; positive”.

These data come from PubChem BioAssay AID1259407 (Chemical Carcinogenesis Research Information System (CCRIS), 2018).
